Non-standard residues stand in square brackets, D forms with d.
Columns and labels:
[1] = tested on: rat anterior pituitary cells; assay: In vitro bioassay: secretion of growth hormone by primary cultures of dissociated rat anterior pituitary cells; assay type: cell-based; conditions: cultured rat anterior pituitary cells, somatostatin = 100
Experimental: In vitro Bioassay: The effects of the various peptides of the invention were tested in vitro on the secretion of growth hormone by primary cultures of enzymatically dissociated rat anterior pituitary cells by the method of Vale et al., Endocrinology 91: p 562-571 (1972). The assay is made by treating pituitary glands removed from rats to separate cells therefrom. The cells are placed in culture dishes in Dulbecco's Modified Eagle Medium (Dulbecco et al., Virology, Vol. 8, p. 396, […]). Carbon dioxide gas and oxygen are supplied to the cell cultures which are maintained at 37° C for 4-5 days prior to use in the assay. Following media changes, cell cultures are incubated for a period of 4 hours and particular somatostatin peptides are added thereto. Radioimmunoassay analysis is used to determine the rate of growth hormone secretion which is expressed in nanograms per hour.
GH determinations were performed on tissue culture media utilizing the following reagents: NIAMDD rat GH standard (GH-RP-1), NIAMDD monkey anti-rat GH (GH-Serum-3), and highly purified rat GH for iodination.
(§1) All experiments were carried on in a randomized block design. Following analysis of variance difference between treatments were determined by the multiple range tests of Dunnett and Duncan. Potency values were calculated from four or six point bioassays.

insulin secretion = assay: In vivo bioassay: inhibition of insulin release, portal vein plasma after i.v. peptide; design: species or system Sprague-Dawley-CD rats; conditions: rat, external jugular vein administration, somatostatin = 100
Experimental: (§2) An investigation of the effect of somatostatin, dihydrosomatostatin, (as controls) and the peptides of the invention to inhibit the release of glucagon and insulin was made as follows:
(§3) In vivo Bioassay: Male Sprague-Dawley-CD rats weighing 180-200 g housed in temperature and humidity controlled quarters with 14h light and 10h dark (light 0700-[…]) were used in all experiments. Animals were fed a standard ration and tap water ad libitum. Experiments were carried out at least 5 days after arrival of rats from the supplier between the hours 1400 to 1600. After ether anesthesia, peptides or saline were administered in a volume of 0.2 ml. via the external jugular vein. Animals remained anesthetized until the time of blood collection from the portal vein. […]
(§4) Plasma was stored at -20° C for insulin and glucagon determinations. Insulin levels were determined by the method of Herbert et al, […]. […] Glucagon was determined by the method of Faloona and Unger, in Jaffe et al ed., Methods of Hormone Radioimmunoassay, Academic Press, New York, 1974, p. […] was determined by the glucose oxidase method, utilizing a Beckman Glucose Analyzer.
as §1

glucagon secretion = assay: In vivo bioassay: inhibition of glucagon release, portal vein plasma after i.v. peptide; design: species or system Sprague-Dawley-CD rats; conditions: rat, external jugular vein administration, somatostatin = 100
Experimental: as §2, §3, §4, §1

Compound: H-CFF[dW]KFFC-OH (cysteine pairing not given here) [desR1 D-Trp Phe desR4 desR5]
- percent effectiveness for inhibiting secretion of Growth Hormone, somatostatin taken as the base [1]: 6%
- percent effectiveness for inhibiting secretion of Insulin, somatostatin taken as the base (insulin secretion): 80%
- percent effectiveness for inhibiting secretion of Glucagon, somatostatin taken as the base (glucagon secretion): 100%

Compound: C[C@H](N)C(=O)NCC(=O)N[C@H]1CSSC[C@@H](C(=O)O)NC(=O)[C@H](CO)NC(=O)[C@H]([C@@H](C)O)NC(=O)[C@H](Cc2ccccc2)NC(=O)[C@H]([C@@H](C)O)NC(=O)[C@H](CCCCN)NC(=O)[C@H](Cc2c[nH]c3ccccc23)NC(=O)[C@H](Cc2ccccc2)NC(=O)[C@H](Cc2ccccc2)NC(=O)[C@H](CC(N)=O)NC(=O)[C@H](CCCCN)NC1=O [Somatostatin, somatostatin]
- percent effectiveness for inhibiting secretion of Growth Hormone, somatostatin taken as the base [1]: 100%
- percent effectiveness for inhibiting secretion of Insulin, somatostatin taken as the base (insulin secretion): 100%
- percent effectiveness for inhibiting secretion of Glucagon, somatostatin taken as the base (glucagon secretion): 100%
